Test results published in ChEMBL document CHEMBL1201862, “PubChem BioAssay data set” (2004).
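All cell lines were grown in 96-well plates and treated with compound for 48 hours. GI50 marks 50% less growth.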 Active and inactive are the calls of the source. Cut-off read from the data, not from the text of the source: active = GI50 up to about 1.1 µM and inactive = higher.

Key:
Assay in all cases: NCI tumour cell line growth inhibition, 48 h
[1] = tested on: 786-0
[2] = tested on: A498
[3] = tested on: A549
[4] = tested on: BT-549
[5] = tested on: CAKI-1
[6] = tested on: CCRF-CEM
[7] = tested on: COLO 205
[8] = tested on: DU-145
[9] = tested on: EKVX
[10] = tested on: HCC 2998
[11] = tested on: HCT-116
[12] = tested on: HL-60
[13] = tested on: HOP-62
[14] = tested on: IGROV-1
[15] = tested on: K562
[16] = tested on: M14
[17] = tested on: MCF7
[18] = tested on: MDA-MB-231
[19] = tested on: MDA-MB-435
[20] = tested on: MDA-N
[21] = tested on: MOLT-4
[22] = tested on: Malme-3M
[23] = tested on: NCI-H23
[24] = tested on: NCI-H522
[25] = tested on: OVCAR-3
[26] = tested on: OVCAR-5
[27] = tested on: PC-3
[28] = tested on: RPMI-8226
[29] = tested on: RXF 393
[30] = tested on: SF-295
[31] = tested on: SF-539
[32] = tested on: SK-MEL-2
[33] = tested on: SK-MEL-5
[34] = tested on: SK-OV-3
[35] = tested on: SN12C
[36] = tested on: SR
[37] = tested on: T47D
[38] = tested on: TK-10
[39] = tested on: U-251
[40] = tested on: UACC-257
[41] = tested on: UACC-62
[42] = tested on: UO-31
[43] = tested on: ACHN
[44] = tested on: HCT-15
[45] = tested on: HOP-92
[46] = tested on: HT-29
[47] = tested on: Hs-578T
[48] = tested on: KM12
[49] = tested on: LOX IMVI
[50] = tested on: NCI-H226
[51] = tested on: NCI-H460
[52] = tested on: NCI/ADR-RES
[53] = tested on: OVCAR-4
[54] = tested on: OVCAR-8
[55] = tested on: SF-268
[56] = tested on: SK-MEL-28
[57] = tested on: SNB-19
[58] = tested on: SNB-75
[59] = tested on: SW-620

SMILES: COc1c(-c2cccs2)oc2c(CC(=O)O)cccc2c1=O
- GI50 [1]: > 100000 nM (inactive)
- GI50 [2]: 86300 nM (inactive)
- GI50 [3]: > 100000 nM (inactive)
- GI50 [4]: > 100000 nM (inactive)
- GI50 [5]: > 100000 nM (inactive)
- GI50 [6]: > 100000 nM (inactive)
- GI50 [7]: > 100000 nM (inactive)
- GI50 [8]: > 100000 nM (inactive)
- GI50 [9]: > 100000 nM (inactive)
- GI50 [10]: > 100000 nM (inactive)
- GI50 [11]: > 100000 nM (inactive)
- GI50 [12]: 70.2 nM (active)
- GI50 [13]: 1200 nM (inactive)
- GI50 [14]: > 100000 nM (inactive)
- GI50 [15]: > 100000 nM (inactive)
- GI50 [16]: > 100000 nM (inactive)
- GI50 [17]: > 100000 nM (inactive)
- GI50 [18]: > 100000 nM (inactive)
- GI50 [19]: > 100000 nM (inactive)
- GI50 [20]: > 100000 nM (inactive)
- GI50 [21]: 56900 nM (inactive)
- GI50 [22]: > 100000 nM (inactive)
- GI50 [23]: 53300 nM (inactive)
- GI50 [24]: > 100000 nM (inactive)
- GI50 [25]: > 100000 nM (inactive)
- GI50 [26]: > 100000 nM (inactive)
- GI50 [27]: > 100000 nM (inactive)
- GI50 [28]: 230 nM (active)
- GI50 [29]: > 100000 nM (inactive)
- GI50 [30]: > 100000 nM (inactive)
- GI50 [31]: > 100000 nM (inactive)
- GI50 [32]: > 100000 nM (inactive)
- GI50 [33]: > 100000 nM (inactive)
- GI50 [34]: > 100000 nM (inactive)
- GI50 [35]: > 100000 nM (inactive)
- GI50 [36]: 56000 nM (inactive)
- GI50 [37]: > 100000 nM (inactive)
- GI50 [38]: > 100000 nM (inactive)
- GI50 [39]: > 100000 nM (inactive)
- GI50 [40]: > 100000 nM (inactive)
- GI50 [41]: > 100000 nM (inactive)
- GI50 [42]: 10300 nM (inactive)

SMILES: CN(C)CCNCCCNc1c2ccccc2nc2cccc([N+](=O)[O-])c12
- GI50 [1]: < 12.6 nM (active)
- GI50 [2]: 21 nM (active)
- GI50 [3]: < 17 nM (active)
- GI50 [43]: 17 nM (active)
- GI50 [4]: 157 nM (active)
- GI50 [5]: 38.5 nM (active)
- GI50 [6]: < 12.1 nM (active)
- GI50 [7]: < 14.1 nM (active)
- GI50 [8]: < 15.9 nM (active)
- GI50 [9]: < 17 nM (active)
- GI50 [10]: < 12.6 nM (active)
- GI50 [11]: < 16.1 nM (active)
- GI50 [44]: 82.6 nM
- GI50 [12]: < 13.9 nM (active)
- GI50 [13]: 28.8 nM (active)
- GI50 [45]: < 15.6 nM (active)
- GI50 [46]: < 12.5 nM (active)
- GI50 [47]: < 38.6 nM (active)
- GI50 [14]: < 20.5 nM (active)
- GI50 [15]: < 11.9 nM (active)
- GI50 [48]: 27 nM (active)
- GI50 [49]: < 14.8 nM (active)
- GI50 [16]: 22.4 nM (active)
- GI50 [17]: 10.2 nM (active)
- GI50 [18]: < 12.9 nM (active)
- GI50 [19]: < 14.4 nM (active)
- GI50 [21]: < 10 nM (active)
- GI50 [22]: 46.1 nM (active)
- GI50 [50]: 24.8 nM (active)
- GI50 [23]: < 12.1 nM (active)
- GI50 [51]: < 12.1 nM (active)
- GI50 [24]: < 10 nM (active)
- GI50 [52]: 910 nM (active)
- GI50 [25]: < 15.7 nM (active)
- GI50 [53]: < 12.9 nM (active)
- GI50 [26]: < 14.8 nM (active)
- GI50 [54]: < 14.6 nM (active)
- GI50 [27]: < 17.1 nM (active)
- GI50 [28]: < 13.8 nM (active)
- GI50 [29]: 13.8 nM (active)
- GI50 [55]: < 16 nM (active)
- GI50 [30]: < 16.3 nM (active)
- GI50 [31]: 67.6 nM (active)
- GI50 [56]: 188 nM (active)
- GI50 [32]: 19.7 nM (active)
- GI50 [33]: < 18.1 nM (active)
- GI50 [34]: 42.4 nM (active)
- GI50 [35]: < 20.8 nM (active)
- GI50 [57]: 29.8 nM (active)
- GI50 [58]: 17.3 nM (active)
- GI50 [36]: < 10 nM (active)
- GI50 [59]: < 14.4 nM (active)
- GI50 [37]: 38.7 nM (active)
- GI50 [38]: 46 nM (active)
- GI50 [39]: < 17.5 nM (active)
- GI50 [40]: 220 nM (active)
- GI50 [41]: 44.6 nM (active)
- GI50 [42]: 74.1 nM (active)
